Experimental data: patent US11319296B2, “DP antagonist” (ONO PHARMACEUTICAL CO., LTD., priority 2018, dated 2022)

Legend:
Human DP receptor = target: T1, Human DP receptor (Homo sapiens, UniProt Q13258); assay: Measurement of DP receptor antagonistic activity using human DP receptor expressing cells (cAMP-HTRF); format: cell-based; settings: inhibition of cAMP production increased by 10 nmol/L prostaglandin D2
T1 construct: expressed in transfected cells
T1 sequence (Q13258 1-359): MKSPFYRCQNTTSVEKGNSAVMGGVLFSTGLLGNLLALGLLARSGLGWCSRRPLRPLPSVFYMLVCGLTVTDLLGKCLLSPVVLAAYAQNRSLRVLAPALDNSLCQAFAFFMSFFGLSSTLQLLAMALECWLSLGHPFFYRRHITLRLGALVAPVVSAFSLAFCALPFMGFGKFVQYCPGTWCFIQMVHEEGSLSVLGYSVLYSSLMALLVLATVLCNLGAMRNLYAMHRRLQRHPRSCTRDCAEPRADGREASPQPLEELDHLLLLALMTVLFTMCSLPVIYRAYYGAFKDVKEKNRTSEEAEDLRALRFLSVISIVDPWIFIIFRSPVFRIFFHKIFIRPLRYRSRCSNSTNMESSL
Description: Biological Example 1: Measurement of DP Receptor Antagonistic Activity Using Human DP Receptor Expressing Cells
cAMP-HTRF kit (SCETI MEDICAL LABO K.K., 62AM6PEJ) was used to measure DP receptor antagonistic activity. To a 384 well plate was added 10 μL/well of the compound of the present invention prepared at various concentrations and prostaglandin D2 (final concentration 10 nmol/L). Human DP receptor-expressing cells were suspended in phosphate buffer containing 2 μmoL/L diclofenac and 1 mmol/L IBMX (3-isobutyl-1-methylxantine) and seeded to 5000 cells/10 μL/well. After cell seeding, the cells were incubated at room temperature for 1 hour. Thereafter, anti-cAMP Cryptate conjugate and a cAMP-d2 solution were added according to a method of the measurement kit, and the mixture was incubated at room temperature for 1 hour, then the cAMP concentration in the sample was quantified.
Intensity of DP receptor antagonistic action by the compound of the present invention was represented by IC50 value (concentration of the compound of the present invention required to inhibit 50% of cAMP production in the absence of the compound of the present invention) calculated from an inhibition ratio to the cAMP production increased by 10 nmol/L prostaglandin D2 stimulation.

[1] = Measurement of concentration of compound in cerebrospinal fluid (CSF) after oral administration; format: in vivo; settings: rat, 3 mg/kg, male Wistar rats, oral 3 mg/5 mL/kg, five test substances mixed, CSF collected 3 hours after administration
Description: Pharmacokinetic Test 1: Measurement of Concentration of Compound of Present Invention in Cerebrospinal Fluid (Hereinbelow, CSF)
Five test substances were mixed, and a test substance solution was prepared so that the dose of each test substance was 3 mg/5 mL/kg. The medium used was 5% DMSO 20% kolliphor HS15/propylene glycol (7:3). The test substance solution was orally administered to male 8- to 10-week-old Wistar rats purchased from Charles River Japan. Three hours after administration, the rats were anesthetized and CSF was collected by cisternal puncture. The same amount of ethanol (wako) as CSF was taken with a syringe used for collection, and the compound adsorbed on the syringe was recovered by washing.
Candesartan (TRC) was used as an internal standard substance, 40 μL of acetonitrile and 160 μL of Candesartan-containing acetonitrile/ethanol (7:3) were added to 10 μL of the obtained CSF sample, and the mixture was stirred. To prepare a calibration curve, 40 μL of the compound solution and 160 μL of Candesartan-containing acetonitrile/ethanol (7:3) were added to 10 μL of plasma, and the mixture was stirred. The entire amount of each solution was transferred to a deproteinization filter plate and suction filtered. The obtained filtrate was appropriately diluted with acetonitrile/water (1:1) and used for measurement. In the measurement, standard samples for calibration curve were prepared in the same matrix and analyzed in the same manner. The measurement was performed under the following conditions.
Liquid Chromatography System: Prominence UFLCXR (Shimadzu Corporation),
Column: Shim-pack XR-ODSII 2.0 mm ID×75 mm (Shimadzu Corporation),
Column temperature: 40° C.,
Mobile phase: A: 0.2% formic acid 5 mmol/L ammonium acetate aqueous solution, B: acetonitrile,
Mass spectrometry system: API4000, API5000 (AB SCIEX)
A regression equation was calculated from the peak area ratio (peak area of the test substance/peak area of the internal standard substance) obtained by measuring the standard samples for calibration curve using analysis software Analyst ver. 1.5.2 (AB SCIEX). The peak area ratio was also obtained for a measurement sample and substituted into the regression equation to calculate a quantitative value. In calculation of mean value and standard deviation, points below the lower limit of quantification were calculated as 0.

normal rat = assay: Effect of prolonging normal rat awakening time (electroencephalogram/electromyogram); format: in vivo; settings: rats, single oral dose of 3 mg/kg
Description: Biological Example 2: Effect of Prolonging Normal Rat Awakening Time
Chronic electrodes were placed in the brain and cervical muscles of rats to prepare rats in which electroencephalogram and electromyogram can be measured. After a recovery period of one week or more, the rat and a biological signal amplifier were connected in a shield box that blocked sound and electrical noise. After acclimatization in a measurement cage for 1 hour or more, various doses of the compound of the present invention were orally administered to rats in a single dose, and electroencephalogram and electromyogram were recorded 6 hours after the oral administration. After the measurement was completed, the rats were returned to a breeding cage each time, and a vehicle and each compound were evaluated with a washout period of one week or more.
The recorded electroencephalogram and electromyogram were analyzed using SleepSign Ver. 3 and divided into epochs every 10 seconds, and the stage was determined for any of awakening, non-REM sleep or REM sleep, with reference to characteristics of the electroencephalogram and electromyogram and spectral analysis results of each frequency component of the brain wave. […]

| SMILES | IC50 (Human DP receptor) | concentration at 3 h [1] | awakening time-prolonging effect (difference in total awakening time of 6 hours after administration vs vehicle-administered group) (normal rat) |
| --- | --- | --- | --- |
| Cc1cc(OCCC2CCCCO2)cc(C)c1C(=S)Nc1cc(C(C)C(=O)O)ccc1Cl (stereo in doubt) [Example 21, 2-(4-Chloro-3-{[(2,6-dimethyl-4-{2-[(2R)-tetrahydro-2H-pyran-2-yl]ethoxy}phenyl)carbothioyl]amino}phenyl)propanoic Acid] | 7.8 nM | 66 ng/mL | – |
| O=C(O)Cc1ccc(Cl)c(NC(=O)c2ccc(OCCC3CCCCC3)cc2C(F)(F)F)c1 [Example 2-1, {4-Chloro-3-[4-(2-cyclohexylethoxy)-2-(trifluoromethyl)benzamide]phenyl}acetic Acid] | 34 nM | – | – |
| Cc1cc(OCCC2CCCCO2)cc(C)c1C(=O)Nc1cc(CC(=O)O)ccc1Cl (stereo not drawn) [Example 4, (4-Chloro-3-{2,6-dimethyl-4-[2-(oxan-2-yl)ethoxy]benzamide}phenyl)acetic Acid] | 58 nM | – | – |
| Cc1cc(OCCC2CCCCC2)cc(C)c1C(=O)Nc1cc(CC(=O)O)ccc1Cl [Example 4-1, {4-Chloro-3-[4-(2-cyclohexylethoxy)-2,6-dimethylbenzamide]phenyl}acetic Acid] | 11 nM | 29 ng/mL | – |
| Cc1cc(OC2Cc3ccccc3C2)cc(C)c1C(=O)Nc1cc(CC(=O)O)ccc1F [Example 5, (3-{4-[(2,3-Dihydro-1H-inden-2-yl)oxy]-2,6-dimethylbenzamide}-4-fluorophenyl)acetic Acid] | 10 nM | – | – |
| Cc1cc(C#CCC2CCCCC2)cc(C)c1C(=O)Nc1cc(CC(=O)O)ccc1Cl [Example 7, {4-Chloro-3-[4-(3-cyclohexylprop-1-yn-1-yl)-2,6-dimethylbenzamide]phenyl}acetic Acid] | 16 nM | 45 ng/mL | – |
| Cc1cc(/C=C/CC2CCCCC2)cc(C)c1C(=O)Nc1cc(CC(=O)O)ccc1Cl [Example 8, (4-Chloro-3-{4-[(1E)-3-cyclohexylprop-1-en-1-yl]-2,6-dimethylbenzamide}phenyl)acetic Acid] | 3.7 nM | 28 ng/mL | 48 min |
| Cc1cc(OCCC2CCCCO2)cc(C)c1C(=S)Nc1cc(CC(=O)O)ccc1Cl (stereo not drawn) [Example 10, [4-Chloro-3-({2,6-dimethyl-4-[2-(oxan-2-yl)ethoxy]benzene-1-carbothioyl}amino)phenyl]acetic Acid] | 9.6 nM | 43 ng/mL | – |
| Cc1cc(OCCC2CCCCC2)cc(C)c1C(=S)Nc1cc(CC(=O)O)ccc1Cl [Example 10-1, (4-Chloro-3-{[4-(2-cyclohexylethoxy)-2,6-dimethylbenzene-1-carbothioyl]amino}phenyl)acetic Acid] | 1.7 nM | 36 ng/mL | – |
| O=C(O)Cc1ccc(Cl)c(NC(=S)c2ccc(OCCC3CCCCO3)cc2C(F)(F)F)c1 (stereo not drawn) [Example 10-2, [4-Chloro-3-({4-[2-(oxan-2-yl)ethoxy]-2-(trifluoromethyl)benzene-1-carbothioyl}amino)phenyl]acetic Acid] | – | 55 ng/mL | – |
| O=C(O)Cc1ccc(Cl)c(NC(=S)c2ccc(OCCc3ccccc3)cc2C(F)(F)F)c1 [Example 10-4, (4-Chloro-3-{[4-(2-phenylethoxy)-2-(trifluoromethyl)benzene-1-carbothioyl]amino}phenyl)acetic Acid] | 5.1 nM | 34 ng/mL | – |
| Cc1cc(OCC[C@H]2CCCCO2)cc(C)c1C(=S)Nc1cc(CC(=O)O)ccc1Cl [Example 12, {4-Chloro-3-[(2,6-dimethyl-4-{2-[(2R)-oxan-2-yl]ethoxy}benzene-1-carbothioyl]amino}phenyl}acetic Acid] | 4.8 nM | 48 ng/mL | 60 min |
| Cc1cc(OCCC2CCCCO2)cc(C)c1C(=S)Nc1cc(C(C)(C)C(=O)O)ccc1F (stereo not drawn) [Example 20, 2-{3-[({2,6-Dimethyl-4-[2-(tetrahydro-2H-pyran-2-yl)ethoxy]phenyl}carbothioyl)amino]-4-fluorophenyl}-2-methylpropanoic Acid] | 35 nM | 52 ng/mL | – |
